This is an account of results in PubChem BioAssay AID743395 (Broad Institute, 2014).

Structures are written as SMILES. Values joined by “and” are separate entries in the source; they are usually repeats but may differ in a detail not shown here. Equal values may be shown once.

In the experiment the test system is HepG2 viability, CellTiter-Glo ATP luminescence, 72 h. Nature of the experiment: HepG2 cell cytotoxicity, dose response, cytotoxicity control, CellTiter-Glo luminescence, cherry-pick, set 2 (AID 743395).
As to `COC(=O)c1ccc(/C=C/c2c(-c3ccc(OC)cc3)oc3ccc(N4CCOCC4)cc23)cc1`, the AC35 is 16 µM.
`CC(C)CN(CCCNC(=O)CN1C(=O)CSc2ccc(S(=O)(=O)N3CCOCC3)cc21)CC(C)C`: the AC35 is 6.21 µM.
Next, `Cc1ccc(-n2nnnc2SCC(=O)NC(C(=O)O)(c2ccccc2)c2ccccc2)cc1C`: 15 µM; `CC1(C(=O)NCc2cccs2)Cc2c(-c3ccc4c(c3)OCO4)ccnc2O1` (stereo not given): 16.4 µM; `CCN(c1cccc(C)c1)S(=O)(=O)c1ccc(-c2cc(C)no2)s1`: 8.73 µM.
With `CCC(=O)N1CC2(CCN(Cc3ccc(Cl)cc3)CC2)c2c(n(C)c3cc(OC)ccc23)[C@H]1CO` the figure was 9.27 µM.
With `CCOC(=O)c1sc(Nc2nc(C)cc(C)n2)nc1C` the figure was 11.3 µM.
`CC/C=C/CC(=O)N[C@@H](c1ccccc1)[C@@H](O)C(=O)O[C@H]1C[C@@]2(O)[C@@H](OC(=O)c3ccccc3)C3[C@](C)(C(=O)[C@H](OC(C)=O)C(=C1C)C2(C)C)[C@@H](O)C[C@H]1OC[C@@]31OC(C)=O` (stereo not given in full): the AC35 was 1.98 µM.
`Cc1cccc(N2CCN(C(=O)c3ccc4[nH]c(C)c(C)c4c3)CC2)c1C`: the AC35 is 2.5 µM.
Consider `CC(=O)NC(c1ccc(Cl)cc1)c1ccc2cccnc2c1O` (stereo not given), for which the AC35 is 2.14 µM.
With `O=C1c2cccc(NCCCNCCO)c2C(=O)c2cccc(NCCCNCCO)c21` the figure was 3.61 µM; with `COc1cc(OC)cc(C(=O)c2c(C)c(C#N)c3ccccn23)c1`, 9.29 µM; with `CC(=O)Oc1c(C)cc(Cl)cc1C(=O)Nc1ccc([N+](=O)[O-])cc1Cl`, 0.712 µM.
Next, `CC(C)(C)c1cc(C(=O)NN)n(Cc2ccc(Cl)cc2Cl)n1`: 18.7 µM.
With `CC(C)C[C@H](NC(=O)c1nc[nH]c1C(=O)N1CCN(C(=O)OC(C)(C)C)CC1)C(=O)OC(C)(C)C` the figure was 14.6 µM; with `COc1ccc(CNC(=O)c2c(C)oc3c2C(=O)c2ccccc2C3=O)cc1`, 2.36 µM; with `COc1ccc(S(=O)(=O)Nc2cc3c(cc2C(C)=O)OCO3)cc1`, 12.9 µM.
For `COc1cccc(Sc2ccccc2/C=N/NC(N)=O)c1`, the AC35 is 9.98 µM.
On to `Cc1ccc(N(C)S(=O)(=O)c2ccc(-c3cnc(C4CC4)o3)cc2)cc1`, for which the AC35 is 8.88 µM.
Next, `C/C(=N\Nc1ncnc2sc(C)c(C)c12)c1ccccn1`: 0.572 µM.
As to `COc1ccc(-c2ccc3c(c2)[C@H]2[C@H](CCN2S(=O)(=O)c2ccc(OC)cc2)[C@H](CO)N3C)cc1`, the AC35 is 6.5 µM.
Next, `CCOC(=O)[C@]12CCCC=C1N(Cc1cccc3ccccc13)C(=O)[C@H](CC(=O)NCc1cccc(C(F)(F)F)c1)C2`: 9.99 µM; `C[C@H]1CN([C@@H](C)CO)S(=O)(=O)c2ccc(C#Cc3ccc(F)cc3)cc2O[C@H]1CN(C)C(=O)NC1CCCC1`: 19.1 µM.
With `Oc1ccc2ccccc2c1N=Nc1nccs1` the figure was 11.3 µM; with `CCN(CC)CCCNc1nc2ccccc2c2[nH]c3ccc(OC)cc3c12`, 2.39 µM; with `COCC(=O)N1CC2(CCN(Cc3ccccc3)CC2)c2c([nH]c3cc(OC)ccc23)[C@H]1CO`, 5.27 µM.
Next, `CCN(CC)c1ccc(/C=N/NC(=O)c2ccco2)c(O)c1`: 1.13 µM.
In the case of `CCOc1ccc(C)cc1S(=O)(=O)n1cnc2ccccc21`, the AC35 was 11.7 µM.
With `O=C(N=Nc1c(O)[nH]c2ccc(Br)cc12)c1ccccc1-n1cccc1` the figure was 13.1 µM.
With `CN(C)c1ccc(-[n+]2c(-c3ccccc3)cc(-c3ccccc3)cc2-c2ccccc2)cc1`, the AC35 was 3.01 µM.
For the molecule `Cc1nc(C)c(C(=O)NN=Cc2ccc(N(CCCl)CCCl)cc2)s1`, the AC35 was 11.8 µM.
With `O=C(O)c1ccccc1-c1c2cc(I)c(=O)c(I)c-2oc2c(I)c(O)c(I)cc12` the figure was 8.34 µM.
`COc1ccc2c(c1)sc(N)[n+]2Cc1cc(C)cc2cccnc12`: the AC35 is 12.4 µM.
For `O=C(N/N=C/c1cc2c3c(c1O)CCCN3CCC2)c1ccccc1O`, the AC35 was 0.751 µM.
For the molecule `CC(=O)c1cccc(-c2ccnc3c2CC(C(=O)NCc2ccco2)O3)c1` (stereo not given), the AC35 was 6.09 µM.
For the molecule `COc1ccccc1CNC(=O)Nc1nc(C(N)Cc2ccc(Cl)cc2)cs1` (stereo not given), the AC35 was 9.79 µM.
As to `CNc1c2cccc(C)c2nc2c(C(=O)NCCN(C)C)cccc12`, the AC35 is 0.428 µM.
For `CCCCNC(=O)C(=O)Nc1ccc2c(c1)N(S(=O)(=O)c1cccs1)CCC2`, the AC35 was 12.7 µM.
In the case of `O=C1c2ccccc2C(=O)c2c1cccc2N1CCCC1`, the AC35 was 18.9 µM.
Next, `Nc1ccc2ccc3cccc[n+]3c2c1`: 21.5 µM; `COc1ccc(-c2csc(NC(=S)NC(=O)/C=C/c3ccco3)n2)cc1OC`: 14.3 µM; `O=C(N/N=C/c1c(O)ccc2ccccc12)C(=O)N1CCCC1`: 15.7 µM.
With `Cc1ccc(/C=N/NC(=O)c2c(-c3ccccc3)noc2C)c(O)c1` the figure was 18.4 µM.
Next, `COCCCN=C1NN=C(c2cc(C)n(Cc3ccco3)c2C)CS1`: 6.71 µM; `Cc1ccc(C(=O)NC(=S)NNC(=O)c2ccccc2O)cc1`: 17.2 µM.
With `COc1cccc(S(=O)(=O)N2C[C@@H]3N[C@H](C2)C3c2ccc(-c3cccc(C)c3)cc2)c1` (stereo not given in full), the AC35 is 12 µM.
With `Cc1ccc(-c2ccc3c(c2)O[C@H](CN(C)Cc2ccccn2)[C@@H](C)CN([C@H](C)CO)S3(=O)=O)cc1` the figure was 13.8 µM.
With `Cc1ccc(-c2csc(Nc3ccccn3)n2)cc1` the figure was 13 µM; with `COc1cccc(-c2cnc3c(NC(C)=O)cc(-c4cc(F)ccc4OC)cn23)c1`, 12.5 µM; with `COc1ccc(-c2ccc3oc(-c4ccc(OC)cc4)c(C#CCO)c3c2)cc1`, 3.2 µM.
Consider `Cc1cc(N/N=C/c2ccccc2O)c2ccccc2n1`, for which the AC35 was 19.7 µM.
Next, `COc1ccc(C(=O)NCCN(C)C)c2nc3ccccc3cc12`: 2.81 µM; `Cc1ccc2c(c1)CCCN2C(=O)CCc1nc2ccccc2c(=O)[nH]1`: 7.93 µM; `COc1ccc(-c2cc(NC=O)c3ncc(-c4ccc(OC)c(OC)c4)n3c2)cc1`: 6.95 µM.
Next, `COc1cccc2c1C(=O)c1c(O)c3c(c(O)c1C2=O)CC(O)(C(C)=O)CC3OC1CC(N(C)C)C(O)C(C)O1` (stereo not given): 0.0849 µM.
For `Oc1cccc(/C=N/Nc2ccc(Cl)nn2)c1O`, the AC35 is 7.7 µM.
Consider `Cc1ccc(S(=O)(=O)N2CCCCC2CCNC(=O)C(=O)NCc2ccccc2)cc1` (stereo not given), for which the AC35 was 12.5 µM.
With `COc1cc(OC)cc(-c2cc3ccc(OC)cc3cn2)c1` the figure was 4.68 µM; with `Cc1c(C2Nc3ccccc3C2C)[nH]c2ccccc12` (stereo not given), 6.86 µM.
Next, `CN1c2ccc(-c3ccc(F)cc3)cc2[C@H]2[C@H](CCN2S(=O)(=O)c2cccc(F)c2)[C@H]1CO`: 17.2 µM; `O=c1cc(-c2ccc(O)c(O)c2)oc2cc(O)cc(O)c12`: 19 µM.
With `COc1ccc(OC)c(-c2cnc(OC(C)(C)C)nc2OC(C)(C)C)c1` the figure was 19.3 µM.
For `COc1cc(C#Cc2ccc3cc(CCCO)oc(=O)c3c2)cc(OC)c1`, the AC35 was 6.25 µM.
For the molecule `C[n+]1c2cc(N)ccc2cc2ccc(N)cc21`, the AC35 was 1.17 µM and 2.2 µM.
With `C=C1C(=O)[C@]23C[C@H]1CC[C@H]2[C@]1(C)[C@@H](OC(C)=O)CC[C@@](C)(C(=O)O)[C@H]1C[C@@H]3O` the figure was 11.3 µM.
With `O=c1c2ccccc2oc2cc(-c3ccc4[nH]ccc4c3)ccc12` the figure was 4.72 µM.
Take `O=C(Nc1ccc(OC(F)(F)F)cc1)c1ccc2c(c1)no[n+]2[O-]`: the AC35 was 17.6 µM.
`O=C(OCc1ccc(Br)cc1)c1cc([N+](=O)[O-])ccc1N1CCOCC1`: the AC35 is 10.8 µM.
Next, `CC(=NNC(=S)N(Cc1ccccn1)Cc1ccccn1)c1cnccn1`: 2.87 µM.
Consider `C[C@H](CO)N1C[C@H](C)[C@@H](CN(C)Cc2ccc(Cl)c(Cl)c2)Oc2ccc(NC(=O)Nc3ccc(C(F)(F)F)cc3)cc2CC1=O`, for which the AC35 is 10.5 µM.
Next, `c1ccc2c(c1)C1=NCCN1c1ccccc1-2`: 3.01 µM.
Next, `Cc1ccc(S(=O)(=O)Nc2ccc3c(c2)CC(=O)N([C@@H](C)CO)C[C@@H](C)[C@@H](CN(C)Cc2ccc(Cl)c(Cl)c2)O3)cc1`: 10.3 µM; `COc1ccc(-c2ccnc(-c3ccc(O)cc3)n2)cc1`: 10.1 µM; `CN1c2ccc(-c3ccc(F)cc3)cc2[C@H]2[C@H](CCN2S(=O)(=O)c2cccc(F)c2)[C@@H]1CO`: 17.3 µM.
With `O=Nc1ccc(O)c2ncccc12` the figure was 5.57 µM; with `Cc1ccc(C)c(C2NC(=O)c3ccccc3N2)c1` (stereo not given), 5.13 µM.
Regarding `COc1ccc(Nc2nc(-c3sc(C)nc3C)cs2)c(OC)c1`, the AC35 was 10 µM.
With `C[C@@H]1O[C@@H](O[C@@H]2C=C3CC[C@@H]4C(CC[C@]5(C)[C@@H](c6ccc(=O)oc6)CC[C@]45O)[C@@]3(C)CC2)[C@H](O)[C@H](O)[C@H]1O` (stereo not given in full) the figure was 0.116 µM; with `COC(=O)c1cc(C(=O)N2CCN(c3cccc(Cl)c3)CC2)cc([N+](=O)[O-])c1`, 14.1 µM.
Next, `COc1ccc2sc3cccc(NCCN(C)C)c3c(=O)c2c1`: 10.4 µM; `COc1cc(OC)cc(C(=O)OCC(=O)NC(c2ccccc2)c2ccccc2)c1`: 16.2 µM.
With `Cc1ccc(C(=O)N/N=C/c2cc(Br)ccc2O)cn1` the figure was 17.8 µM.
Consider `CCOC(=O)c1c(C)[nH]c(C(=O)N/N=C/c2ccc(OC)c(OC)c2)c1C`, for which the AC35 is 6.01 µM.
With `C[C@H](CO)N1C[C@H](C)[C@H](CN(C)C(=O)NC2CCCCC2)Oc2cc(C#Cc3cccc(F)c3)ccc2S1(=O)=O` the figure was 10.9 µM; with `C[C@@H]1CN([C@H](C)CO)C(=O)c2cc(NS(=O)(=O)c3ccc(Cl)cc3)ccc2O[C@@H]1CN(C)Cc1ccc(-c2ccccc2)cc1`, 16.8 µM.
With `O=C1OCC2=C1C(c1ccc3c(c1)OCO3)c1cc3c(cc1O2)OCO3` (stereo not given) the figure was 3.26 µM; with `C[C@@H]1CN([C@@H](C)CO)C(=O)Cc2cc(N(C)C)ccc2O[C@@H]1CN(C)Cc1ccc(C(=O)Nc2ccccc2N)cc1`, 11.5 µM; with `N#CC1=C(N)Oc2cc(N)ccc2C1c1cccc(F)c1` (stereo not given), 6.38 µM.
Turning to `O=C(Nc1cccc(C2=NCCN2)c1)Nc1cccc(C2=NCCN2)c1`, the AC35 was 5.69 µM.
Next, `Cc1nc(/N=C(\N)NC(=O)NC2CCCCC2)nc2ccccc12`: 20.2 µM.
